Test results as given in PubChem BioAssay (NCI).
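1) Cells in 96-well plates. 2) Compound, 48 h, 5 concentrations. 3) Linear interpolation between surrounding doses. 4) Unreached endpoint = highest concentration. TGI: total growth inhibition.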

Tests used:
Assay in all cases: inhibition of tumour cell growth, NCI panel, 48 h
MALME-3M melanoma = system: MALME-3M melanoma
T-47D breast = system: T-47D breast
SN12C renal = system: SN12C renal
NCI-H23 lung = system: NCI-H23 lung
MDA-MB-231 breast = system: MDA-MB-231 breast
SNB-75 CNS = system: SNB-75 CNS
UO-31 renal = system: UO-31 renal
RXF 393 renal = system: RXF 393 renal
UACC-257 melanoma = system: UACC-257 melanoma
U251 CNS = system: U251 CNS
MOLT-4 leukemia = system: MOLT-4 leukemia
KM12 colon = system: KM12 colon
SF-268 CNS = system: SF-268 CNS
MDA-N = system: MDA-N
SR leukemia = system: SR leukemia
NCI/ADR-RES ovarian = system: NCI/ADR-RES ovarian
MDA-MB-435 = system: MDA-MB-435
M14 melanoma = system: M14 melanoma
SK-MEL-5 melanoma = system: SK-MEL-5 melanoma
BT-549 breast = system: BT-549 breast

## CN1CSC(=S)N(c2c3ccccc3nc3ccc(Br)cc23)C1
MALME-3M melanoma
  TGI: 33.2 µM
T-47D breast
  TGI: 38.3 µM
SN12C renal
  TGI: 18.8 µM
NCI-H23 lung
  TGI: 23.5 µM
MDA-MB-231 breast
  TGI: 22.9 µM
SNB-75 CNS
  TGI: 23.7 µM
UO-31 renal
  TGI: 22.4 µM
RXF 393 renal
  TGI: 24.7 µM
UACC-257 melanoma
  TGI: 24.8 µM
U251 CNS
  TGI: 20.4 µM
MOLT-4 leukemia
  TGI: 5.87 µM
KM12 colon
  TGI: 33.6 µM
SF-268 CNS
  TGI: 27.4 µM
MDA-N
  TGI: 25.3 µM
SR leukemia
  TGI: 12.6 µM
NCI/ADR-RES ovarian
  TGI: 30.9 µM
MDA-MB-435
  TGI: 26.5 µM
M14 melanoma
  TGI: 26.9 µM
SK-MEL-5 melanoma
  TGI: 26.2 µM
BT-549 breast
  TGI: 32.2 µM

## O=C(O)/C=C(/C(=O)O)C12CCN3CC4=CCOC5CC(=O)NC1C5C4CC32 (stereo not given)
MALME-3M melanoma
  TGI: > 100 µM
T-47D breast
  TGI: > 100 µM
SN12C renal
  TGI: > 100 µM
NCI-H23 lung
  TGI: > 100 µM
MDA-MB-231 breast
  TGI: > 100 µM
SNB-75 CNS
  TGI: > 100 µM
UO-31 renal
  TGI: > 100 µM
RXF 393 renal
  TGI: > 100 µM
UACC-257 melanoma
  TGI: > 100 µM
U251 CNS
  TGI: > 100 µM
MOLT-4 leukemia
  TGI: > 100 µM
KM12 colon
  TGI: > 100 µM
SF-268 CNS
  TGI: > 100 µM
MDA-N
  TGI: > 100 µM
SR leukemia
  TGI: > 100 µM
NCI/ADR-RES ovarian
  TGI: > 100 µM
MDA-MB-435
  TGI: > 100 µM
M14 melanoma
  TGI: > 100 µM
SK-MEL-5 melanoma
  TGI: > 100 µM
BT-549 breast
  TGI: > 100 µM

## CC1(C)CCCC2OC2CCC(C)(C)C1=O (stereo not given)
MALME-3M melanoma
  TGI: > 100 µM
T-47D breast
  TGI: > 100 µM
SN12C renal
  TGI: > 100 µM
NCI-H23 lung
  TGI: > 100 µM
MDA-MB-231 breast
  TGI: > 100 µM
SNB-75 CNS
  TGI: > 100 µM
UO-31 renal
  TGI: > 100 µM
RXF 393 renal
  TGI: > 100 µM
UACC-257 melanoma
  TGI: > 100 µM
U251 CNS
  TGI: > 100 µM
MOLT-4 leukemia
  TGI: > 100 µM
KM12 colon
  TGI: > 100 µM
SF-268 CNS
  TGI: > 100 µM
MDA-N
  TGI: > 100 µM
SR leukemia
  TGI: > 100 µM
NCI/ADR-RES ovarian
  TGI: > 100 µM
MDA-MB-435
  TGI: > 100 µM
M14 melanoma
  TGI: > 100 µM
SK-MEL-5 melanoma
  TGI: > 100 µM
BT-549 breast
  TGI: > 100 µM

## CCN(CC)CCn1c(=O)c2cccnc2n2c3c(=O)n(C)c(=O)n(C)c3nc12
MALME-3M melanoma
  TGI: > 100 µM
T-47D breast
  TGI: > 100 µM
SN12C renal
  TGI: > 100 µM
NCI-H23 lung
  TGI: > 100 µM
MDA-MB-231 breast
  TGI: > 100 µM
SNB-75 CNS
  TGI: > 100 µM
UO-31 renal
  TGI: > 100 µM
RXF 393 renal
  TGI: > 100 µM
UACC-257 melanoma
  TGI: > 100 µM
U251 CNS
  TGI: > 100 µM
MOLT-4 leukemia
  TGI: > 100 µM
KM12 colon
  TGI: > 100 µM
SF-268 CNS
  TGI: > 100 µM
MDA-N
  TGI: > 100 µM
SR leukemia
  TGI: > 100 µM
NCI/ADR-RES ovarian
  TGI: > 100 µM
MDA-MB-435
  TGI: > 100 µM
M14 melanoma
  TGI: > 100 µM
SK-MEL-5 melanoma
  TGI: > 100 µM
BT-549 breast
  TGI: > 100 µM

## C=CCSc1nnc2cc(CN3CCCC3)c(-c3ccc(Cl)cc3)nn12
MALME-3M melanoma
  TGI: 43.2 µM
T-47D breast
  TGI: 71.4 µM
SN12C renal
  TGI: 32.1 µM
NCI-H23 lung
  TGI: 59.4 µM
MDA-MB-231 breast
  TGI: 35.6 µM
SNB-75 CNS
  TGI: 39.2 µM
UO-31 renal
  TGI: 30.4 µM
RXF 393 renal
  TGI: 31.5 µM
UACC-257 melanoma
  TGI: 32.3 µM
U251 CNS
  TGI: 31.2 µM
MOLT-4 leukemia
  TGI: > 100 µM
KM12 colon
  TGI: 64.7 µM
SF-268 CNS
  TGI: 46 µM
MDA-N
  TGI: 34.2 µM
SR leukemia
  TGI: > 100 µM
NCI/ADR-RES ovarian
  TGI: 56.3 µM
MDA-MB-435
  TGI: 41.7 µM
M14 melanoma
  TGI: 34.7 µM
SK-MEL-5 melanoma
  TGI: 31.1 µM
BT-549 breast
  TGI: 42.4 µM

## Cc1ccc(C(=C2Sc3ccccc3S2)C(=C2Sc3ccccc3S2)c2ccc(C)s2)s1
MALME-3M melanoma
  TGI: > 100 µM
T-47D breast
  TGI: > 100 µM
SN12C renal
  TGI: > 100 µM
NCI-H23 lung
  TGI: > 100 µM
MDA-MB-231 breast
  TGI: > 100 µM
SNB-75 CNS
  TGI: > 100 µM
UO-31 renal
  TGI: > 100 µM
RXF 393 renal
  TGI: > 100 µM
UACC-257 melanoma
  TGI: > 100 µM
U251 CNS
  TGI: > 100 µM
MOLT-4 leukemia
  TGI: > 100 µM
KM12 colon
  TGI: > 100 µM
SF-268 CNS
  TGI: > 100 µM
MDA-N
  TGI: > 100 µM
SR leukemia
  TGI: 85.7 µM
NCI/ADR-RES ovarian
  TGI: > 100 µM
MDA-MB-435
  TGI: > 100 µM
M14 melanoma
  TGI: > 100 µM
SK-MEL-5 melanoma
  TGI: > 100 µM
BT-549 breast
  TGI: > 100 µM
